This note sets out measurements from publication PMC12435270 (Proceedings of the National Academy of Sciences of the …, 2025).

In assay [1] the target is T1, human creatine transporter (hCRT, SLC6A8) (Homo sapiens, UniProt P48029).
T1 sequence (P48029 1-635): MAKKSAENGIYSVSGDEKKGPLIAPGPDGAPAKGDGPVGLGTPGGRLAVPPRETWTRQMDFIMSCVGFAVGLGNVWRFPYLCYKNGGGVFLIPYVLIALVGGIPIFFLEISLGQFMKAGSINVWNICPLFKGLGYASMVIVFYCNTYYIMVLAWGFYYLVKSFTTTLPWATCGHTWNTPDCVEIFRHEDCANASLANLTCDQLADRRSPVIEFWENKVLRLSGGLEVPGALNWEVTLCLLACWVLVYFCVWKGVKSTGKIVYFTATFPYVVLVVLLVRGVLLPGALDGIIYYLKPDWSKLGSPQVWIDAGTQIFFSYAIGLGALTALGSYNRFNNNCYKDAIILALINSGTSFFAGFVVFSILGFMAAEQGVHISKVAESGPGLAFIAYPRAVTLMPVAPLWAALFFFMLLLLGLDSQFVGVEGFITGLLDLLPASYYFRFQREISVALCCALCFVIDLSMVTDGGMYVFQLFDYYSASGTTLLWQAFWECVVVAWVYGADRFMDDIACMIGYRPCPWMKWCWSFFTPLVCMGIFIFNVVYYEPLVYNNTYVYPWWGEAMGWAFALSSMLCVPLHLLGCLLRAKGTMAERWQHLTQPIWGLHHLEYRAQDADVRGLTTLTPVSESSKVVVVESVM
Description: cryo-EM structure. It counts as binding.

Assay [2] addresses T1, human creatine transporter (hCRT, SLC6A8). Put plainly: cryo-EM structure. Type of assay: binding. This is another data set of the same source.

Like-named read-outs stand apart in the source and are kept apart here.

`CN(CC(=O)O)C(=N)N` [creatine]: the Kd in assay [1] stood at 3.2 µM.
`N=C(N)NCCC(=O)O` [RGX202] had a Kd in assay [2] of 3.39 µM.

As usually defined, the Kd is a measure of binding affinity in units of concentration. The low end stands for a tighter complex, the high end for a looser complex.
